ChEMBL document CHEMBL2203037, “Synthesis and Anti-influenza A Virus Activity of 2,2-Dialkylamantadines and Related Compounds” (ACS Med Chem Lett, 2012)
Activity calls are given as the source filed them. The calls are words filed in the database; no cut-off is given here.

Columns and labels:
[1] = test system: Vesicular stomatitis virus; test: Antiviral activity against Vesicular stomatitis virus by cell based assay; type: functional, organism-based
[2] = test system: Respiratory syncytial virus; test: Antiviral activity against Respiratory syncytial virus by cell based assay; type: functional, organism-based
[3] = test system: Influenza A virus; test: Antiviral activity against amantadine-sensitive Influenza A virus (A/FM/1/47 (H1N1)) infected in MDCK cells assessed as virus-induced cytopathic effect measured 3 days post infection by microscopic analysis; type: functional, organism-based; conditions: A/Fort Monmouth/1/1947(H1N1), 72 h
[4] = Cytotoxicity against dog MDCK cells assessed as cell viability after 72 hrs by MTS assay; type: cell-based, Canis lupus familiaris
[5] = test system: H3N2 subtype; test: Antiviral activity against Influenza A virus (A/HK/7/87 (H3N2)) infected in MDCK cells assessed as virus-induced cytopathic effect by MTS assay; type: functional, organism-based, A/Hong Kong/7/1987(H3N2); conditions: mdck
[6] = test system: Coxsackievirus B4; test: Antiviral activity against Coxsackievirus B4 by cell based assay; type: functional, organism-based
[7] = test system: Sindbis virus; test: Antiviral activity against Sindbis virus by cell based assay; type: functional, organism-based
[8] = test system: H3N2 subtype; test: Antiviral activity against Influenza A virus (A/HK/7/87 (H3N2)) infected in MDCK cells assessed as virus-induced cytopathic effect measured 3 days post infection by microscopic analysis; type: functional, organism-based; conditions: A/Hong Kong/7/1987(H3N2), 72 h
[9] = test system: Mammalian orthoreovirus 1; test: Antiviral activity against Reovirus-1 by cell based assay; type: functional, organism-based
[10] = test system: Simplexvirus; test: Antiviral activity against Herpes simplex virus by cell based assay; type: functional, organism-based
[11] = Cytotoxicity against dog MDCK cells assessed as cell morphology alterations; type: cell-based, Canis lupus familiaris
[12] = test system: Feline coronavirus; test: Antiviral activity against Feline coronavirus by cell based assay; type: functional, organism-based
[13] = test system: Influenza A virus; test: Antiviral activity against Influenza A virus (A/Ishikawa/7/82 (H3N2)) infected in MDCK cells assessed as virus-induced cytopathic effect measured 3 days post infection by microscopic analysis; type: functional, organism-based; conditions: Influenza A virus, A/Ishikawa/7/82 (H3N2), MDCK, 72 h
[14] = test system: Influenza A virus; test: Antiviral activity against amantadine-sensitive Influenza A virus (A/Ned/378/05 (H1N1)) infected in MDCK cells assessed as virus-induced cytopathic effect measured 3 days post infection by microscopic analysis; type: functional, organism-based; conditions: 72 h
[15] = test system: Vaccinia virus; test: Antiviral activity against Vaccinia virus by cell based assay; type: functional, organism-based; conditions: Orthopoxvirus vaccinia
[16] = test system: Human respirovirus 3; test: Antiviral activity against Parainfluenza-3 virus by cell based assay; type: functional, organism-based
[17] = test system: Punta Toro virus; test: Antiviral activity against Punta Toro virus by cell based assay; type: functional, organism-based
[18] = test system: Influenza A virus; test: Antiviral activity against Influenza A virus (A/X-31(H3N2)) infected in MDCK cells assessed as virus-induced cytopathic effect measured 3 days post infection by microscopic analysis; type: functional, organism-based; conditions: Influenza A virus, MDCK, 72 h

Compound | Activity [1] | Activity [2] | EC50 [3] [µM] | CC50 at 72 h [4] [µM] | EC50 [5] [µM] | Activity [6] | Activity [7] | EC50 [8] [µM] | Activity [9] | Activity [10] | MCC [11] [µM] | Activity [12] | EC50 [13] [µM] | EC50 [14] [µM] | Activity [15] | Activity [16] | Activity [17] | EC50 [18] [µM]
CCC1(CC)C2CC3CC(C2)CC1(N)C3 | inactive | inactive | 7 | > 100 | > 100 | inactive | inactive | > 100 | inactive | inactive | ≥ 100 | inactive | > 100 | 4.7 | inactive | inactive | inactive | > 100
CCC1(CC)C2CC3CC(C2)CC1(NC)C3 | inactive | inactive | 9.3 | > 100 | > 100 | inactive | inactive | > 100 | inactive | inactive | ≥ 100 | inactive | > 100 | 8.7 | inactive | inactive | inactive | > 100
